Results taken from PubChem BioAssay (NCI).
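Grown in 96-well plates, cells were treated for 48 hours with each compound at five concentrations. Insufficient inhibition: endpoint recorded as highest concentration tested. TGI: concentration producing complete growth inhibition.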

What was measured:
Assay in all cases: DTP human tumour cell line panel, 48 h
PC-3 prostate = test system: PC-3 prostate
EKVX NSCLC = test system: EKVX NSCLC
OVCAR-4 ovarian = test system: OVCAR-4 ovarian
RXF 393 renal = test system: RXF 393 renal
SK-MEL-2 melanoma = test system: SK-MEL-2 melanoma
CAKI-1 renal = test system: CAKI-1 renal
HS 578T breast = test system: HS 578T breast
MDA-MB-435 = test system: MDA-MB-435
SF-295 CNS = test system: SF-295 CNS
A549 NSCLC = test system: A549 NSCLC

Compound	TGI (PC-3 prostate)	TGI (EKVX NSCLC)	TGI (OVCAR-4 ovarian)	TGI (RXF 393 renal)	TGI (SK-MEL-2 melanoma)	TGI (CAKI-1 renal)	TGI (HS 578T breast)	TGI (MDA-MB-435)	TGI (SF-295 CNS)	TGI (A549 NSCLC)
CCCC(=O)NC(Nc1ccc(S(=O)(=O)Nc2nc(C)cc(C)n2)cc1)(C(F)(F)F)C(F)(F)F	> 100 µM	> 100 µM	> 100 µM	> 100 µM	> 100 µM	> 100 µM	> 100 µM	> 100 µM	> 100 µM	> 100 µM
CCOc1cc(C2CC(c3ccc(NS(=O)(=O)c4cc([N+](=O)[O-])ccc4C)cc3)=NN2c2ccc([N+](=O)[O-])cc2[N+](=O)[O-])ccc1O (stereo not given)	64.7 µM	22 µM	11 µM	27 µM	44.3 µM	56.5 µM	57.4 µM	> 100 µM	41.1 µM	28.1 µM
O=c1cc(N2CCN(c3cc(=O)n4ccccc4n3)CC2)oc2ccccc12	> 100 µM	> 31.6 µM	> 100 µM	> 100 µM	> 100 µM	> 100 µM	> 80.2 µM	> 100 µM	> 100 µM	> 87.8 µM
CCOC(=O)c1cc2c3c(c(C(C)=O)c(O)c2[nH]1)N(CC(C)CC)CC3 (stereo not given)	> 100 µM	> 100 µM	> 100 µM	> 100 µM	> 100 µM	> 100 µM	51.4 µM	> 100 µM	> 100 µM	> 100 µM
COc1ccccc1NC(=O)CC(=O)N1N=C(C)C(N=Nc2ccc(C(=O)O)cc2)C1=O (stereo not given)	> 100 µM	> 100 µM	> 100 µM	> 100 µM	> 100 µM	> 100 µM	> 100 µM	> 100 µM	> 100 µM	> 100 µM
COc1ccc2nc3cc([N+](=O)[O-])ccc3c(Nc3ccc(S(=O)(=O)NC(C)=O)cc3)c2c1	> 100 µM	> 100 µM	> 100 µM	> 100 µM	> 100 µM	> 100 µM	> 100 µM	> 100 µM	> 100 µM	> 100 µM
CSc1n[nH]c(N)c1C(=O)Nc1ccc(C)cc1	> 100 µM	> 100 µM	> 100 µM	> 100 µM	> 100 µM	> 100 µM	> 100 µM	> 100 µM	> 100 µM	> 100 µM
C=C(C)C(O)C(O)c1c(OC)ccc2ccc(=O)oc12 (stereo not given)	> 100 µM	> 100 µM	> 100 µM	> 100 µM	> 100 µM	> 100 µM	> 100 µM	> 100 µM	> 100 µM	> 100 µM
OC(CCNCc1ccccc1)c1ccc2ccccc2c1 (stereo not given)	47.4 µM	> 100 µM	72.9 µM	37.1 µM	38.9 µM	42.6 µM	47.7 µM	44.2 µM	63.9 µM	36.3 µM
O=c1oc2ccccc2cc1-c1cn2cc(Cl)ccc2n1	16.4 µM	> 100 µM	12.8 µM	9.48 µM	24.9 µM	3.28 µM	8.19 µM	0.138 µM	5.36 µM	16.8 µM
N#Cc1ccccc1-c1nc2c3c(c(N)ccc3n1)C(=O)c1ccccc1-2	> 100 µM	> 100 µM	> 100 µM	> 100 µM	> 100 µM	43.6 µM	> 100 µM	> 100 µM	> 100 µM	> 100 µM
O=C1c2cc3c(cc2CC12Cc1ccc4c(c1C2=O)CCCC4)CCCC3 (stereo not given)	> 100 µM	> 100 µM	62.8 µM	> 100 µM	> 100 µM	> 100 µM	> 100 µM	> 100 µM	> 100 µM	> 100 µM
COc1cc(/C=C2/C[C@H]3[C@@H]4CC=C5C[C@@H](OC(C)=O)CC[C@]5(C)[C@H]4CC[C@]3(C)NC2=O)cc(OC)c1OC	44.3 µM	68.3 µM	62.3 µM	39.4 µM	52.4 µM	> 100 µM	74.2 µM	> 100 µM	65.9 µM	59.3 µM
COc1c(O)cc(O)c2c(=O)cc(-c3ccccc3)oc12	> 100 µM	> 100 µM	> 100 µM	42.7 µM	> 100 µM	> 100 µM	> 100 µM	> 100 µM	> 100 µM	> 100 µM
O=C(O)c1ccn(-c2cccc(-n3ccc(C(=O)O)n3)n2)n1	> 100 µM	> 100 µM	> 100 µM	> 100 µM	> 100 µM	> 100 µM	> 100 µM	> 100 µM	> 100 µM	> 100 µM
Oc1c([Si](c2ccccc2)(c2ccccc2)c2ccccc2)cc2ccccc2c1-c1c(O)c([Si](c2ccccc2)(c2ccccc2)c2ccccc2)cc2ccccc12	> 100 µM	> 100 µM	> 100 µM	> 100 µM	> 100 µM	> 100 µM	> 100 µM	> 100 µM	> 100 µM	> 100 µM
COC(=O)C(CSSC[C@H](N/C(C)=C/C(C)=O)C(=O)OC)N/C(C)=C/C(C)=O (stereo not given in full)	> 100 µM	41.4 µM	> 100 µM	52.7 µM	> 100 µM	55.4 µM	52.9 µM	> 100 µM	> 100 µM	> 100 µM
COc1cc(/C=C2\Sc3scc(-c4cccc([N+](=O)[O-])c4)[n+]3C2=O)cc(OC)c1OC	86.3 µM	26.5 µM	31.5 µM	26.9 µM	39.8 µM	17.8 µM	57.1 µM	25.2 µM	39.5 µM	54.3 µM
CCCCCCCCCCCCCCCCCCNc1ccn(C2OC(COP(=O)(O)OCC3OC(n4cc(F)c(NCCCCCCCCCCCCCCCCCC)nc4=O)CC3O)C(O)C2O)c(=O)n1 (stereo not given)	> 100 µM	> 100 µM	> 100 µM	> 100 µM	> 100 µM	> 100 µM	> 100 µM	> 100 µM	> 100 µM	> 100 µM
CCOC(=O)c1cnc2oc3ccc(O)cc3c2c1-c1ccccc1	> 100 µM	> 100 µM	> 100 µM	> 100 µM	> 100 µM	> 100 µM	> 100 µM	> 100 µM	> 100 µM	> 100 µM
